Data as given in US20130259929A1, “USE OF A PHOSPHOPEPTIDE ABLE TO BLOCK HER3/P85 INTERACTION FOR THE TREATMENT OF HER2 HYPER-EXPRESSING TUMOURS” (priority 2010, published 2013).
Non-standard residues stand in square brackets, D forms with d. No end group written: not given here. pY = N[C@@H](Cc1ccc(OP(=O)(O)O)cc1)C(=O)O

What was measured:
HER3 = HER3 expression level (Western blot) after peptide transfection; format: cell-based, human; details: after peptide treatment (FIG. 4A); poorly appreciable in MDA-MB-453
Method: Treatments and lmmunodecorations. […] Briefly the cells have been plated at 5×10^5 concentration in 60 mm plates. […] At the end of the treatment the cells have been lysed with RIPA buffer [150 mM NaCl, 1% NP-40, 0,5% sodium deoxycholate (DOC), 0.1% SDS, 50 mM TrisHCl (pH 8), 1 mM PMSF, 1 mM EGTA, 50 mM NaF, 50 mM Na3VO4 and protease inhibitors (Roche, Milano, IT)] in order to analyze the expression levels of phosphorylated and total ErbB-3, ErbB-2, ERK and HSP-70 proteins. In order to analyze the levels of Akt phosphorylation and expression, the cells have been lysed in NP-40 buffer [1% NP-40, 10% glycerol, 137 mM NaCl, 20 mM TrisHCl (pH 7.4), 50 mM NaF, 1 mM PMSF, 5 mM Na3VO4, protease inhibitors (Roche, Milano, IT)]. Cell lysates have been incubated on ice for 20 minutes and centrifuged at 14000 rpm for 20 minutes. RIPA buffer obtained cell extracts have been boiled for 5 minutes at 95° C., while NP40 buffer lysed samples have been boiled at 65° C. for 5 minutes. Samples have been subjected to SDS-PAGE and transferred on nitrocellulose filters (Bio-Rad, Milan, IT). Then the filters have been incubated with interest antibodies, washed and incubated with specific secondary horse radish peroxidase (HRP) conjugated antibodies. After thorough washing, nitrocellulose peroxidase activity has been detected by chemiluminescence (Lite-blot-Euroclone, Milano, IT)

MCF7 cells = experiment: Cell death and apoptosis (Trypan Blue exclusion); format: cell-based, human; details: MCF7 cells vs parental or scr transfected; Herceptin 1 μg/ml 40 hours where combined
Source text: (§1) Cell death and Apoptosis. MCF7, BT474 and MDA-MB-453 cell lines have been plated at 5×10^5 concentration in 60 mm plates. On subsequent day the cells have been transfected with ErbB3 specific interference oligonucleotides or peptides. […] The cells have been washed two times with cold PBS and then trypsin collected. The evaluation of cellular viability has been carried out by means of Trypan Blue exclusion. The use of anti-PARP antibody in Western Blotting analysis allowed apoptosis to be evaluated. Briefly the cells have been lysed in RIPA buffer [150 mM NaCl, 1% NP-40, 0,5% sodium deoxycholate (DOC), 0.1% SDS, 50 mM TrisHCl (pH 8), 1 mM PMSF, 1 mM EGTA, 50 mM NaF, 50 mM Na3VO4 and protease inhibitors (Roche, Milano, IT)]. The samples have been boiled for 5 minutes at 95° C., resolved using SDS-PAGE, transferred on nitrocellulose and blotted using anti-PARP antibody. The tumour cell death analyzed by immunohistochemistry have been obtained using TUNEL assay.

BT474 cells = experiment: Cell death and apoptosis (Trypan Blue exclusion); format: cell-based, human; details: BT474 cells vs parental or scr transfected; Herceptin 1 μg/ml 40 hours where combined
Source text: as §1

[1] = target: T1, p85 and p110a (PI3K catalytic sub-unit) interaction (Homo sapiens, UniProt P27986); experiment: Immunoprecipitation with anti-p85, blot anti-p110α, in transfected cells; format: cell-based; details: transfected cells (FIG. 2D)
T1 construct: Whole cell lysates have been imunoprecipitated with anti-p85 antibody; endogenous in cells; host or cells: MCF7, BT474, MDA-MB-453
T1 sequence (P27986 whole entry): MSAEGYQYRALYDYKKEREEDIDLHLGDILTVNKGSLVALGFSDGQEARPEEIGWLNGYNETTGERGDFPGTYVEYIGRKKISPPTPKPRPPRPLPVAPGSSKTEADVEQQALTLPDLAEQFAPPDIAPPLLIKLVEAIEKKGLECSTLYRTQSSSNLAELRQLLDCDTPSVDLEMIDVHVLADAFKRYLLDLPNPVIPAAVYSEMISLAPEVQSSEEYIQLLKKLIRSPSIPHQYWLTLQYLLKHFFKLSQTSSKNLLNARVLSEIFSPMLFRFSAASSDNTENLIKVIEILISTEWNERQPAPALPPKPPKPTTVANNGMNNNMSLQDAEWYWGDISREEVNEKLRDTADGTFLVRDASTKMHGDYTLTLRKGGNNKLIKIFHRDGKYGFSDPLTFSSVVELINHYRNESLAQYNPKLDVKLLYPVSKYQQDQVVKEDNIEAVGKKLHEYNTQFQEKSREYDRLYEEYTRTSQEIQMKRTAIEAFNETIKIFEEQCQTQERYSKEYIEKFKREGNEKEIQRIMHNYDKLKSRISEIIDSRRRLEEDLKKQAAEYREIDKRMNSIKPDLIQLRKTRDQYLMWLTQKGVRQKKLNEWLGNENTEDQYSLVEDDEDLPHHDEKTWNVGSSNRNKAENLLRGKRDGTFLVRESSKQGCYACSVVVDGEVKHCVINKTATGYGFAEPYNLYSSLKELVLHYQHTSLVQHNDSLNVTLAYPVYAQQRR
Method: Immunoprecipitation. MCF7, BT474 and MDA-MB-453 cell lines have been plated at 5×10^5 concentration in 60 mm plates. On subsequent day cells have been transfected with 1257 phosphopeptide and contrrol phosphopeptide. After 40 hours the cells have been washed two times with cold PBS and extracted with lysis buffer [(50 mM Tris HCl (pH 7.4), 250 mM NaCl, 0.1% Triton X-100, 5 mM EDTA, 50 mM NaF, 1 mM PMSF, 5 mM Na3VO4 e 50 mmol/L protease inhibitors (Roche, Milan, IT)]. Whole cell lysates have been imunoprecipitated with anti-p85 antibody (#06-496) in the presence of protein G (Pierce, Milan, IT). Whole proteins and immunocomplexes then have been subjected to 8% SDS-PAGE and transferred on nitrocellulose filter. The proteins have been detected by immunodecoration using anti-ErbB3 and anti-p110α antibodies.
The peptide has been transfected using Lipofectamine in all three cell lines. […] This binding is required in order PI3K kinase to be activated.

MCF7/Luc cells = experiment: In vivo growth of peptide-transfected MCF7/Luc cells inoculated s.c.; design: species or system SCID mice
Method: Xeno-grafts. In vivo tests have been carried out using 40 day old SCID female mice (Harlan Laboratories, Milan, IT). At day 0, animals have been totally anesthetized with intramuscular injection of 400 μg/animal (average weight 25 g) of Zoletil (Virbac) containing 0.12% Xylor (Xylazine), and transplanted subcutaneously (s.c.), in intrascapular mouse region with pellet of […] (1.7 mg/sustained release pellet over 60 days, Innovative Research of America, Sarasota, Fla.). On the next day, 5×10^6 proliferating and scr and 1257 peptide previously transfected, as above described, MCF7 or BT474 cells, have been re-suspended in 0.1 ml of Matrigel (BD Biosciences) and subcutaneously inoculated in each mouse. […] Tumour growth has been monitored two times weekly using calibration along two orthogonal axes: length (L) and […]. The tumour volume (V) has been calculated using the formula V=L*(W2)/2. All the procedures relating to animals and treatment thereof have been carried out according institutional guidelines.
Generation of mammary tumour luminescent cells. Mammary tumour MCF7 cell lines stably transfected using pGL4.51 (luc2/CMV/Neo) expression vector, produced by Promega (Me, IT), have been transfected using scr or 1257 phosphopeptide ([…]×5×10^4 cells/mouse) and after 30 h subcutaneously inoculated in SCID mice (5×10^6 cells/mouse) in 200 μl (1:1 Matrigel: cell suspension in serum free medium). Mice have been in vivo imaged 20′ after inoculation and once weekly over 11 weeks. The animals have been anesthetized, as above reported, and subjected to intraperitoneal injection with 200 μl of luciferin (Caliper, Mi, IT); 10′ after incubation photon emission has been analyzed at 3′ minute exposure using Xenogen Ivis Lumina 2 machine. Growth of these cells has been monitored as reported in xenografts section.
Then it has been verified whether 1257 phosphopeptide was effective also in vivo. To this purpose immunocompromised SCID mice have been used. In the presence of oestrogen tablets, 5×10^6 control cells transfected with scr peptide or transfected with 1257 peptide have been injected subcutaneously between mouse scapulae. In order to verify the viability of phosphopeptide transfected cells in animals we have generated a stable luciferase gene expressing MCF7 cell line (MCF7/Luc).

[2] = s.c. inoculation of transfected MCF7 cells, up to 16th week

inhibition of p85 and p110a interaction [1]: inhibits p85 from interacting with p110a
Substance: RDGGGPGGDpYAAMGACPA (RDGGGPGGD[pY]AAMGACPA; listed as Homo sapiens) [1257 phosphopeptide]
total level of HER3 (HER3): decrease
cell death, times higher than controls (MCF7 cells): 3 times
cell death, times higher than controls (BT474 cells): 4 times
luminescence of transplanted cells over the time (MCF7/Luc cells; bioluminescence imaging weekly (FIG. 7A)): progressively decreases
time after inoculation at which tumours were calibratable (MCF7/Luc cells; s.c. inoculation of transfected MCF7 cells): about 10 week
animals that displayed tumour (MCF7/Luc cells; [2]): One out of five
reduction of tumour take (MCF7/Luc cells; [2]): 80%
